Data: a melting point compilation (Tetko et al.; mined from patent text by program, amines drawn as free bases though some values may be those of a salt)

SMILES	melting point
O=Cc1cc(Oc2ccc(C(F)(F)F)cc2Cl)ccc1[N+](=O)[O-]	95 °C
CC(C)(C(=O)O)c1ccc(OC(F)F)cc1	68.5 to 69.5 °C
CCC1(O)CC(=O)OCc2c1cc1n(c2=O)Cc2c-1nc1ccccc1c2-c1ccc(C)cc1 (stereo not given)	> 280 °C
CCC1(CC)c2cc(CBr)c(CBr)cc2C(CC)(CC)N1Cc1ccccc1	164 to 166 °C
CCCCCCCCCCCCCCCCC#CCBr	34 to 35 °C
COC(=O)c1cc(N)c(Oc2cc(C)cc(C)c2)c(S(N)(=O)=O)c1	195 to 196 °C
O=[N+]([O-])c1cccc(S(=O)(=O)Nc2nncs2)c1	189 to 192 °C
O=[N+]([O-])c1cc(CC(O)(Cn2cncn2)Cn2cncn2)ccc1Cl	136 to 137 °C
ClC(Cl)(Cl)SNc1nc(C(Cl)(Cl)Cl)ns1	180 °C
CC(C)(C)c1cc(CCc2ccccc2NC(=O)N2CCN(Cc3ccc4c(c3)OCO4)CC2)cc(C(C)(C)C)c1O	149 to 151 °C
N#Cc1ccc2c(c1)c(-c1ccccc1)nn2CCCBr	100 to 102 °C
O=c1c2cc3ncn(CCc4cccc(F)c4)c(=O)c3cc2ncn1CCc1cccc(F)c1	250 to 251 °C
CCCCCS(=O)(=O)NC(=O)CCc1ccc(OCCOC)cc1OCc1nc(-c2ccccc2)oc1C	95.9 to 96.7 °C
CC(C)(C)OC(=O)Nc1ccccc1NC(=O)c1ccc(C(=O)Nc2cccc(Nc3nc(-c4cccnc4)cs3)c2)cn1	220 to 222 °C
Cc1ccc(Cl)cc1NC(=S)n1c(C)c(C)c2ccccc21	115 °C
Cc1cc(OCc2ccc(-c3ccccc3-c3nnn[nH]3)cc2)c(C(=O)O)c(C)n1	237 °C
O=C(O)c1ccc(-c2c(-c3ccccc3)[nH]c3ccccc23)cc1	252 to 253 °C
N#COc1ccc(OC#N)cc1	117 to 119 °C
O=C(C=Cc1ccccc1)NCc1ccc(C(=O)O)cc1	238 to 239 °C
CC(=O)OC1CC2CCC3C(CCC4(C)C(O)C(N5CCCCC5)CC34)C2(C)CC1N1CCCCC1 (stereo not given)	183 °C
N#Cc1ccc2c(C#N)c3cc(C#N)ccc3c(C#N)c2c1	345 °C
OC1CSC(Oc2cccc(-c3cccs3)c2)C(O)C1O (stereo not given)	165 to 166 °C
O=S(=O)(Nc1ccccc1/C=C/c1ccncc1)c1ccc(Cl)cc1	218 to 220 °C

SMILES	melting point
Cc1c(CCNC(=S)Nc2nccs2)cccc1C(F)(F)F	158 to 159 °C
Cc1cccc(C(=O)O)c1Nc1ccccc1C(=O)O	258 to 259 °C
OCc1cnoc1-c1cccc(Cl)c1	80 to 81 °C
COc1cc(Cc2cnc(NC(=O)C(C)(C)C)nc2NC(=O)C(C)(C)C)cc(OC)c1OC	153 to 154 °C
CCOC(=O)CS(=O)(=O)N(Cc1ccc(Cl)cc1)c1ccccc1CC(=O)OC	86 to 88 °C
COC(=O)c1cc(C(=O)OC)cc(-c2ccccc2)c1	91 to 92 °C
NC(=O)c1ccnc(-c2cccc3cc(Cc4cccc(C(F)(F)F)c4)sc23)c1	177 to 178 °C
N#Cc1cccc2c1ccn2-c1ncc(C(F)(F)F)cc1Cl	109 to 111 °C
COc1cccc([C@H]2O[C@H](CC(=O)Nc3cc(CCC(=O)O)ccc3OC(C)C)C(=O)N(CC(C)(C)CO)c3ccc(Cl)cc32)c1OC	133 to 136 °C
Oc1c(Cl)cc(-c2ccco2)cc1Cl	68 to 70 °C
CCCc1nc2c(N)nc3cc(OCc4c(C)noc4C)ccc3c2s1	178 to 180 °C
CCCCCCc1cc2c(s1)NC(=O)CN=C2c1ccccc1C	162 to 163 °C
C[C@H]1[C@@H](C(N)=O)CCN1c1ccc(C#N)c2ccccc12	204 to 206 °C
Cc1cc(C(=O)CCc2cc(-c3ccc(C(F)(F)F)cc3)nn2Cc2ccccc2)ccc1OCC(=O)O	175 to 180 °C
O=S(=O)(CCCl)CCCS(=O)(=O)CCCl	142 to 146 °C
O=C(O)CCC(O)c1ccc(-c2ccc(Cl)cc2)cc1 (stereo not given)	134 to 135 °C
COC(=O)C1CN1C(c1ccccc1)(c1ccccc1)c1ccccc1 (stereo not given)	127 to 128 °C
Cc1cc(OCc2ccccc2)cc(C)c1CC(=O)OCc1ccccc1	62 to 64 °C
COc1cc(Nc2nccc(-c3cc(OC)c(OC)c(OC)c3)n2)cc(OC)c1OC	187 °C
C=C[C@H](Cc1ccccc1)NC(=O)OCc1ccccc1	87 to 88 °C
Nc1ccc(CCO)c(N)c1	67 to 72 °C
CCCNC(=O)n1nc(Oc2c(Cl)cc(C(F)(F)F)cc2Cl)cc1C(Cl)(Cl)Cl	89 to 91 °C
COc1ccccc1OC(=O)c1ncn2c1[C@@H]1CCCN1C(=O)c1c(Cl)cccc1-2	205 to 206 °C

The next lines start with the values.

melting point	SMILES
133 to 134 °C	CC(=O)O[C@@](Cn1cncn1)(c1ccccc1F)[C@@H](C)n1ccnn1
73 °C	CCCCCc1ccc(-c2ccc(CCC3(C#N)CCCC(C)C3)cc2)cc1 (stereo not given)
288 °C	O=CNc1nc(NC2CC2)nc(N2CCOCC2)n1
260 to 263 °C	CCOC(=O)c1c[nH]c2c(F)c(C)c(F)cc2c1=O
147 to 149 °C	Oc1nc(Cl)n(-c2ccccc2)n1
110 to 112 °C	Cc1c(-c2ccc(OC3CCCC3)cc2)n(Cc2ccc(OCCBr)cc2)c2ccc(OCc3ccccc3)cc12
147 to 148 °C	Cc1nc2n(CCN3CCOCC3)c3ccccc3n2c1C(=O)c1ccc(Cl)cc1
118 to 119 °C	CC(=O)Oc1ccc2ncc3c(c2c1)CCCC3
86 to 88 °C	O=C(Cl)N1CCC1Oc1ccc(C(F)(F)F)cc1Cl (stereo not given)
64 °C	COc1nsc(S(=O)(=O)c2ccccc2)c1C#N
149 to 150 °C	O=c1c(N2CCNCC2)nc2ccccc2n1-c1cccc(F)c1
174 to 175 °C	CS(=O)(=O)c1ccc(C(=O)C(=O)c2ccc(F)cc2)cc1
118 to 119 °C	O=C1SC[C@H]2[C@@H]1N(Cc1ccccc1)C(=O)N2Cc1ccccc1 (relative stereo)
132 to 133 °C	O=C(O)CCCn1c(=O)c2ccccc2n(CCCCN2CCC(OC(c3ccccc3)c3ccccc3)CC2)c1=O
262 to 264 °C	CC(C)(C)c1cc(NC(=O)c2csc(-c3ccc([N+](=O)[O-])cc3)n2)cc(C(C)(C)C)c1O
68 to 70 °C	CCCCn1c(=O)c(N)c(C)n(CCC(C)C)c1=O
70 to 72 °C	CCOC(=O)Nc1cccc(CBr)c1C(=O)OCC
244 to 247 °C	CC(=O)Nc1ccc(N2CCN(c3ccncc3)CC2)cc1
59.5 to 60 °C	CCN(CC)c1nn2ccccc2c1C(C)=O
150 to 152 °C	CCC(=O)N1C(=O)C(=O)c2cc(F)ccc21
> 260 °C	O=C(C1CCCCC1)N1CC(=NO)NC(=NO)C1
45 to 47 °C	CC(CN1C(=O)C2(COc3cc4c(cc32)CCO4)c2ccccc21)OCc1ccccc1 (stereo not given)
273 to 275 °C	CNc1ncccc1C(=O)Nc1ccc2c(c1)-c1c(c(C(N)=O)nn1-c1ccc3c(c1)OCO3)CC2
116 to 121 °C	CN(Cc1ccc(NC(=O)C2=Cc3cc(Br)ccc3CCC2)cc1)C1CCOCC1
141 to 143 °C	COC(=O)C1CCC2C3CCC4CC(O)C(OC)CC4(C)C3C(NC3CCCCC3)CC12C (stereo not given)
113 to 114 °C	COc1ccc(C(=O)C=Cc2cccnc2)cc1
204 to 206 °C	COc1ccc(-c2cc(C(=O)O)sc2-c2ccc(F)cc2)cc1

melting point	SMILES
110 to 120 °C	COc1cc(C(=O)N2CCC(CCN3CCC(Nc4nc5ccccc5n4Cc4ccc(Cl)s4)CC3)(c3ccc(F)c(F)c3)C2)cc(OC)c1OC (stereo not given)
187 to 190 °C	CC1CC(=O)C=C(c2ccc(OCC(=O)O)c(Cl)c2Cl)C1 (stereo not given)
176 to 177 °C	CC(C)N1CCN(CCN2CCN(c3cn(-c4ccc(F)cc4)c4cc(Cl)ccc34)CC2)C1=O
113 to 115 °C	CC(CSC(=O)c1ccccc1)C(=O)N(CC(=O)O)C1Cc2ccccc2C1 (stereo not given)
94 to 95 °C	CCS(=O)(=O)Nc1ccc([N+](=O)[O-])cc1OC1CCCCC1
80 to 82 °C	CCCCC(OC(C)=O)c1ccccc1COc1cccc2cccnc12 (stereo not given)
72 to 73 °C	O=[N+]([O-])c1cccc(OC2CCCCO2)c1O (stereo not given)
136 to 138 °C	COC1(c2cc(F)cc(OCc3ccc4c(c3)CCC(=S)N4C)c2)CCOCC1
42 to 44 °C	CCOC(=O)c1cnoc1-c1ccc(C(F)(F)F)cc1
128 to 131 °C	CCCOc1cccc(CCCOc2ccc3c(c2)C=C(C(=O)O)CCS3(=O)=O)c1
174 to 176 °C	CCCOC(=O)N1CCN(C(=O)c2cc(S(=O)(=O)N(C)C)ccc2N)CC1
140 to 141 °C	COc1ccc(N2CCN(c3c(C)c(C)c4c(c3C)C(CO)C(C)(C)O4)CC2)cc1 (stereo not given)
133 °C	COc1ccc(C2CSc3ccccc3N(CCO)C2=O)cc1 (stereo not given)
121 to 123 °C	COc1cc(C(=O)N(C(C)C)C2CCCCC2)ccc1Cn1c(-c2ccccc2Cl)nc2ncccc21
> 300 °C	N#Cc1cnc2c(c1Cl)C=C1N=CN=C1C2
90 to 92 °C	CCCCN1CC(=O)NC1=O
179 to 181 °C	C[C@]12CCC(=O)N[C@@H]1CCc1cc(Sc3ccc(F)cc3)ccc12
223 to 224 °C	Cn1ncc(/C=C/C(=O)Nc2ccc(Cc3nnco3)cc2)c1-c1ccc(F)cc1
177 °C	O=C(Nc1n[nH]c2cc(Cl)ccc12)c1ccccn1
146 to 147 °C	CN(O)C(=O)Nc1cccc(NC(=O)N(C)O)c1
96 to 99 °C	CC(C)c1nn(-c2c(Cl)cc(C(F)(F)F)cc2Cl)c(Cl)c1-c1nc(C#N)c(C#N)[nH]1
119 °C	CC(C)=CCn1c(N2CCC(N)C2)nc2c1c(=O)n(C)c(=O)n2C (stereo not given)
154 to 156 °C	Cc1nnc2ccc(-c3ccsc3)nn12
120 to 122 °C	O=S(=O)(NN=C(Cl)c1ccccc1Br)c1ccccc1
176 to 179 °C	O=C(c1ccc2c(c1)[C@@H](O)[C@H](Br)CCO2)c1ccccc1C(F)(F)F (relative stereo)
246 to 248 °C	Cc1nc2c(c3c1[nH]c1ccccc13)C(=O)CC(c1ccccc1)C2 (stereo not given)
116 to 118 °C	CC1CCC2=NNC(=O)CC2C1 (stereo not given)
